Patent US7267815B2, “Methods and reagents for the enhancement of virus transduction in the bladder epithelium” (priority 2002, dated 2007)

Tests used:
[1] = tested on: mice bladder urothelium; assay: Effects of different diluents on adenovirus infectivity after DDM pretreatment; assay type: in vivo, Balb/c Mouse; settings: DDM pretreatment (QQ5 minQ); virus diluted 100 fold with different diluents, 45 min, 1×10^9 vp/dose
Method: • Species: Female Balb/c Mouse (Taconic Laboratory)—2/group • Study Design: To test the effects of different diluents on Adenovirus infectivity of mice urothelium followed DDM pretreatment (QQ5 minQ). The virus would be diluted 100 fold with the diluents prior to instillation into mice bladder for 45 min. • Dose/Route:
Dodecyl-β-D-Maltoside (Lot #100K5308).
All the animals had >90% in Ad-βgal gene expression in mice bladder. Adenovirus Dose Titration with Different Chemical Agents Pretreatment on SD Rat Bladder Epithelium • Species: Female Sprague Dawley Rat (Taconic Laboratory)—2/group • Study Design: To test the virus infectivity of rat bladder epithelium with different doses of Adenovirus following the pretreatment with SDS or DDM. This study also explored relationship between bladder volume and residual of SDS or DDM for adenovirus infectivity. • Dose/Route: […]

[2] = tested on: bladder; assay: Histopathology of bladders after chemical agent pretreatment (pathologists report); assay type: in vivo, mouse (BALB/c)
Source text: Bladders fixed in whole organ fixative were sectioned and stained with hematoxylin-eosin for histologic examination.

[3] = tested on: SW780+ Luc orthotopic bladder tumor; assay: DDM as chemical enhancer prior to Ad.LacZ infection of orthotopic bladder tumor model; assay type: in vivo, NCR nu/nu Mouse; settings: DDM pretreatment (QQ5 minQ), 15 min Ad.Lac Z, 96 hrs; except dead necrotic tumor cells
Source text: In each case, >90% Ad-βgal expression was achieved. Therefore, DDM from either manufacturer is a good candidate for a chemical enhancer for adenovirus infection in mice bladder. Efficacy of Dodecyl-β-D-Maltoside as Chemical Enhancer Prior to Adenovirus Infection of SW780+ Luc Orthotopic Bladder Tumor Model in Mice • Species: Female NCR nu/nu Mouse (Taconic Laboratory)-2/group • Study Design: To show DDM pretreatments enhance Ad.Lac Z infectivity in mice bladder urothelium. To further confirm the enhancer effect on orthotopic tumors, two mice bearing orthotopic SW780 bladder tumors were pretreated with or without DDM (QQ5 minQ) followed by 15 min Ad.Lac Z instillation. The Ad.Lac Z gene expression levels were checked in these tumor cells 4 days post Ad.Lac Z infection. • Dose/Route:
Dodecyl-β-D-Maltoside (Lot#018H7250).
Results: There was a significant difference in Ad-βgal gene expression levels between mice bladders pretreated with DDM and control animals. Without DDM pretreatment, there was very low Ad-βgal gene expression levels in bladder epithelium cells and tumor cells. With DDM pretreatment, nearly 100% of the epithelium cells were transduced with Ad-βgal gene in bladder tumors except those dead necrotic tumor cells. It was concluded that DDM pretreatment enhances Adenovirus infection in orthotopic tumor cells. […]

[4] = tested on: mice bladder urothelium; assay: Adenovirus formulated with different concentrations of Dodecyl-β-D-Maltoside, infectivity of bladder urothelium; assay type: in vivo, Balb/c Mouse; settings: for gene expression in bladder: 20 min. instillation
Method: • Species: Female Balb/c Mouse (Taconic Laboratory)-2/group • Study Design: To test the effect of formulating Ad-βgal virus with different concentrations of Dodecyl-β-D-Maltoside and the resultant infection of mice bladder urothelium • Dose/Route (Viral Particles #/dose):
An equal volume of 2× DDM and 2× Ad.CMV.LacZ was mixed together immediately before instillation into the bladder. […] But with 45 min. instillation, all animals with 0.05%-0.2% DDM with Ad-βgal virus had 100% gene expression in mice bladder.

[5] = tested on: SD rat bladder epithelium; assay: Adenovirus dose titration with SDS or DDM pretreatment; assay type: in vivo, Sprague Dawley Rat; settings: 0.1% pretreatment
Source text: All the animals had >90% in Ad-βgal gene expression in mice bladder. Adenovirus Dose Titration with Different Chemical Agents Pretreatment on SD Rat Bladder Epithelium • Species: Female Sprague Dawley Rat (Taconic Laboratory)—2/group • Study Design: To test the virus infectivity of rat bladder epithelium with different doses of Adenovirus following the pretreatment with SDS or DDM. This study also explored relationship between bladder volume and residual of SDS or DDM for adenovirus infectivity. • Dose/Route:
Rat bladders infected with 4×10^10 vp adenovirus achieved >90% Ad-βgal gene expression levels whereas rat bladders infected with 4×10^9 vp adenovirus had Ad-βgal gene expression levels range from 30% to 50%. […] Efficacy of Dodecyl-β-D-Maltoside as a Pretreatment Agent Prior to Adenovirus Infection of Mice Bladder Urothelium • Species: Female Balb/c Mouse (Taconic Laboratory)—2/group • Study Design: To test DDM from two different suppliers as pretreatment agents to enhance the adenovirus infection of mice bladder urothelium in a large group of animals. • Dose/Route: […]

CCCCCCCCCCCCO[C@@H]1O[C@H](CO)[C@@H](O[C@H]2O[C@H](CO)[C@@H](O)[C@H](O)[C@H]2O)[C@H](O)[C@H]1O [n-dodecyl β-D-maltoside, n-dodecyl-β-D-maltoside]
Ad-βgal gene expression in mice bladder [1]: > 90%
pathologists report ([2]; 0.02% pre-treatment for 5 minutes): no significant lesions
pathologists report ([2]; 0.05% pre-treatment for 5 minutes): no significant lesions
pathologists report ([2]; 0.2% pre-treatment for 5 minutes): erosions, focal ulcer, moderate submucosal edema with mucosal compromise
epithelium cells transduced with Ad-βgal gene in bladder tumors [3]: ~100%
gene expression in bladder ([4]; 0.05% DDM formulated with Ad-βgal virus): about 40%
gene expression in mice bladder ([4]; 0.05%-0.2% DDM with Ad-βgal virus, 45 min. instillation): 100%
gene expression in bladder ([4]; 0.1% DDM formulated with Ad-βgal virus): about 80%
gene transduction (in words) ([4]; 10 min. virus instillation after DDM pretreatment): gene transduction could be achieved
transduction rate (in words) ([4]; DDM formulated with virus, 10 min. instillation): did not achieve an acceptable transduction rate
removal of GAG layer of bladder epithelium [5]: effective to remove GAG layer of bladder epithelium
